Measurements taken from patent US20250066356A1, “LRRK2 INHIBITORS” (INTERLINE THERAPEUTICS, INC., priority 2022, published 2025).
pIC50: −log10 of the molar value.

How the values were obtained:
LRRK2 wild type enzyme = LRRK2 wild type enzyme (Homo sapiens, UniProt Q5S007); experiment: LRRK2 biochemical assay (LanthaScreen TR-FRET, LRRKtide substrate); settings: LRRK2 inhibition; 3 nM LRRK2, 400 nM LRRKtide, 25 μM ATP, 120 min, 23° C.
Experimental: 10 mM compound solution was prepared in DMSO. An 11-point, 3-fold dilution was performed, with highest concentration at 10 μM. A 10 mM compound DMSO solution was added to Labcyte LDV plate and the compound concentration of source plate was 10 mM. The 1 st compound concentration of Inter plate (Labcyte 384 well PP plate) was 4.938×10^−1 mM which was prepared by transferring 1.5 μL of 10 mM compound from source plate to 28.9 μL DMSO. The 2nd compound concentration of Inter plate was 1.829×10^−2 mM which was prepared by transferring 60 nL of 10 mM compound from source plate to 32.7 μL DMSO. The 3rd compound concentration of Inter plate was 6.774×10^−4 mM which was prepared by transferring 2.5 nL of 10 mM compound from source plate to 36.9 μL DMSO. 100 nL of reference compound was dispensed in column 1 for low control wells and 100 nL of DMSO in column 24 for high control wells. Compounds were dispensed to column 2 to 23 of assay plate and backfilled with DMSO to a total volume of 100 nL.
A 2×LRRK2 enzyme solution (final concentration 3 nM) was prepared in assay buffer (Tris-HCl pH8.0: 50 mM, MgCl2: 5 mM, EDTA: 1 mM, Brij-35: 0.01%, 2 mM DTT). A 2× substrate solution was prepared: LRRK2 tide substrate (final concentration 400 nM) and ATP (final concentration 25 μM) in assay buffer. 5 μL 2×LRRK2 enzyme solution was dispensed to each well in assay plate by Multidrop. Assay plate was spun at 1,000 rpm for 1 min and incubated for 15 min at 23° C. 5 μL 2×ATP/LRRKtide solution was dispensed to each well in assay plate by Multidrop. Assay plate was spun at 1,000 rpm for 1 min and incubated for 120 min at 23° C.
A 2× detection solution was prepared: Tb-pERM (pLRRKtide) antibody (final concentration 0.25 nM) and EDTA (final concentration 10 mM) in TR-FRET dilution buffer. 10 μL 2× detection solution was dispensed to each well in assay plate to stop kinase reaction by Multidrop. Assay plate was spun at 1,000 rpm for 1 min and incubate for 30 min at 23° C. Assay plate was then read on Envision configured for LanthaScreen® TR-FRET.

[1] = target: T1, phosphorylation at Ser935 on wild type LRRK2 overexpressed in recombinant HEK-293T cells (Homo sapiens, UniProt Q5S007); experiment: pS935 LRRK2 Cell Assay (HTRF); assay type: cell-based; settings: LRRK2 inhibition; pS935 LRRK2 in transfected HEK293T cells, 2 hours compound incubation
T1 construct: host or cells: HEK293T, transient transfection
T1 sequence (Q5S007 whole entry): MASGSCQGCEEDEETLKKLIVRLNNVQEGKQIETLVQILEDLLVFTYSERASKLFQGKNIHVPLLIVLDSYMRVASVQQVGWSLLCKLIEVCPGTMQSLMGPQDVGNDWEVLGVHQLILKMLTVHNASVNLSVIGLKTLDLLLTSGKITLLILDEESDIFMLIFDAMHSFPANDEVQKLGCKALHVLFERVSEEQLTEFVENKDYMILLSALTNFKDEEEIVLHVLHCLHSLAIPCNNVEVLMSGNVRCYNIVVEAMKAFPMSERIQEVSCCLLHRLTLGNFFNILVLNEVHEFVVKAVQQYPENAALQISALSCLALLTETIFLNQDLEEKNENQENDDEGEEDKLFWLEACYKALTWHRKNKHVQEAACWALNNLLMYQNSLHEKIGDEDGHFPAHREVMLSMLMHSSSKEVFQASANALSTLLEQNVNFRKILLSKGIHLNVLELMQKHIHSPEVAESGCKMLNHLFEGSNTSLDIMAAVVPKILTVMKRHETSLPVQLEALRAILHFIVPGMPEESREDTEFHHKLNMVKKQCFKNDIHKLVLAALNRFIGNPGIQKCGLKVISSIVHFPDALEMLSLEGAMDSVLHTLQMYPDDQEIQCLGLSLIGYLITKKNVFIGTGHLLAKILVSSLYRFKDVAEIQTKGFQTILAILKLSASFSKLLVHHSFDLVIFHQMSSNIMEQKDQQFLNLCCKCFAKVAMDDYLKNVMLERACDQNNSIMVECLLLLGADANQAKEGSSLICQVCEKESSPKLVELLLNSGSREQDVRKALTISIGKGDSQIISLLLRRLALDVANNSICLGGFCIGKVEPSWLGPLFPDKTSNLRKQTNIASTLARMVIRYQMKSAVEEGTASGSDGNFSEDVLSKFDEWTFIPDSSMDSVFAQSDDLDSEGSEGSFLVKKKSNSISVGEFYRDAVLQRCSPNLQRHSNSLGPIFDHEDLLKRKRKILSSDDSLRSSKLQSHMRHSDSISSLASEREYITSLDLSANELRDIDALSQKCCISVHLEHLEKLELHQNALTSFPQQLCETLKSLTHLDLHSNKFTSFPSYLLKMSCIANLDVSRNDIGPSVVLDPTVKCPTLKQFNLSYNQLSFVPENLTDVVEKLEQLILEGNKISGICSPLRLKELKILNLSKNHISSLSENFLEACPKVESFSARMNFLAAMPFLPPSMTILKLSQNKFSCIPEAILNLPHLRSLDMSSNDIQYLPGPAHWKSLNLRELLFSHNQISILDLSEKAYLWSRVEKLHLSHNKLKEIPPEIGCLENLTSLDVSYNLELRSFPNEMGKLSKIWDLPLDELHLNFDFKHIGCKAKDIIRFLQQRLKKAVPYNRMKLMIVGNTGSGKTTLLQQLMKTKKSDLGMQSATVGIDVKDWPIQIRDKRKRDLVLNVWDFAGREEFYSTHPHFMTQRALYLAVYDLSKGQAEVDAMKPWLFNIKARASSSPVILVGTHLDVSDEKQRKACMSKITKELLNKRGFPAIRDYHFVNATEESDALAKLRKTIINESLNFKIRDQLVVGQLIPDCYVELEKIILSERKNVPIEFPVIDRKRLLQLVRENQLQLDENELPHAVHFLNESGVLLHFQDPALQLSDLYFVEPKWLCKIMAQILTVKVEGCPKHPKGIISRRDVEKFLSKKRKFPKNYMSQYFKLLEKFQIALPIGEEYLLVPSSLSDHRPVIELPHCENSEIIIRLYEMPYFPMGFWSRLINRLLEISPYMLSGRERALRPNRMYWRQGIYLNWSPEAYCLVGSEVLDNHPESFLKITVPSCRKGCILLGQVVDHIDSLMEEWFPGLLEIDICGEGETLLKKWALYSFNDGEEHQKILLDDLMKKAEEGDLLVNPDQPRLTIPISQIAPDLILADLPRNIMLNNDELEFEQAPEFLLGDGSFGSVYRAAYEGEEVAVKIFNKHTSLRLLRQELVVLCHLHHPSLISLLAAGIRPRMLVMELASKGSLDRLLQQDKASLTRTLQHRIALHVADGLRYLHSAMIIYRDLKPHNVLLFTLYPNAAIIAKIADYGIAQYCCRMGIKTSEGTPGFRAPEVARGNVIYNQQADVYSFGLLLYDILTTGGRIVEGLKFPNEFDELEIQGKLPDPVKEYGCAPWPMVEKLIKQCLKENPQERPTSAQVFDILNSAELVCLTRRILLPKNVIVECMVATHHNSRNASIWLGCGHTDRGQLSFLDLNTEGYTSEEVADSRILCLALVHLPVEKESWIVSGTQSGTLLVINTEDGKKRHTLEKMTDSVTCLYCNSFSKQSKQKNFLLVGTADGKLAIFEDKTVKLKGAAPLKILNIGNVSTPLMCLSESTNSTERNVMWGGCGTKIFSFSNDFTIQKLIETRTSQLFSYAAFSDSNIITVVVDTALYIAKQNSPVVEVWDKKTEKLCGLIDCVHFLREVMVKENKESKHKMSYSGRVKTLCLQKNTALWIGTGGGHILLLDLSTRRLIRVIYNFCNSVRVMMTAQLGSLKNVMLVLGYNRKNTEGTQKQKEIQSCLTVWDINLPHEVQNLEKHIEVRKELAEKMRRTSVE
Description: The following protocol describes an in-vitro method for measuring phosphorylation at Ser935 on wild type LRRK2 overexpressed in recombinant HEK-293T cells. The method is based on HTRF technology, which combines Fluorescence Resonance Energy Transfer (FRET) with Time-Resolved measurement (TR). Phospho-LRRK2 (Ser935) is detected in a sandwich assay format using two different specific antibodies, one labelled with Eu^3+-Cryptate (donor) and the second with d2 (acceptor). When the fluorophores are in close proximity, excitation of the donor with a light source (flash lamp) stimulates FRET to the acceptor, which in turn fluoresces at a specific wavelength (665 nm). The fluorescence emission at 615 nm from the donor is also measured to allow ratiometric reduction of data. The specific signal is proportional to phospho-LRRK2 (Ser935).
Plasmid transient transfection: DMEM medium, FBS, DPBS, Trans-IT, OPTI-MEM reagents were allowed to warm to room temperature. HEK293T cells were cultured in DMEM+10% FBS complete medium in T150 flasks till around 80% confluency before transfection. Then cells were washed with 10 mL PBS and detached with 3 mL 0.25% typinsin. 30×10E6 HEK293T cells were seeded in DMEM+10% FBS complete medium to a 15 cm dish.
DNA, TransIT-LT1, OPTI-MEM complex were prepared: […] OPTI-MEM was added to a 15 mL cone tube, then […] plasmid was added to OPTI-MEM and mixed, followed by addition of 60 L TransIT-LT1 to the plasmid OPTI-MEM mixture and mixing. The resulting mixture was incubated for 15 minutes.
The above plasmid, DNA and OPTI-MEM mixture was added dropwise to the 15 cm dish, ensuring the drops were evenly distributed. The culture dish was gently rocked back and forth and from left to right to evenly distribute the complex. The transfected dish was incubated for 24 hours at 37° C., and 5% CO2.
Transfected HEK293T was collected in the 15 cm dish. Media was aspirated from tissue culture dish, and washed by dispensing 10 mL 1×DPBS into 15 cm dish. 1×DPBS was aspirated and 3 mL trypsin was dispensed to 15 cm dish. The dish was incubated with trypsin at room temperature for 3 min until the cells were detached. 10 mL of DMEM+10% FBS medium were added to 15 cm dish and triturated to ensure homogenous cell suspensions.
Homogenous cell suspensions were transferred to a 50 mL tube, and centrifuged for 5 minutes at 1,000 rmp/min. The supernatant was aspirated and resuspended with 20 mL complete medium. 1 mL of cell suspension was transferred for cell counting. The cell suspension was diluted to 2×10E5 cells/ml. 50 L cell suspensions were added to a 384-well plate. The plate was quick spun at 800 rpm for 1 minute, then incubate overnight at 37° C., 5% CO2.
Compound dispensing: compound was diluted (10 mM DMSO stock solution) and added to assay plate (top concentration: 10 μM, 3 fold serial dilution, 9 doses) with duplicates by Tecan liquid handler. The DMSO concentration of each well was normalized to 0.2%. Plates were quick spun at 1,000 rpm for 1 minute. Plates were incubated at 37° C., 5% CO2 for 2 hours.
1× lysis buffer solution supplemented with blocking reagent was prepared (e.g. 1 mL lysis buffer 4×+3 mL water+40 L stock blocking reagent 100×). Antibodies working solution was prepared by diluting 40-fold d2 and Cryptate antibodies with detection buffer (e.g. 1520 L detection buffer+40 L d2-antibody stock solution+[…] Cryptate-antibody stock solution).
After 2 hours incubation, cell plates were taken out from the incubator. Medium was removed by plate washer, then 16 µL of supplemented lysis buffer was added 1× to each well and incubated for 30 minutes at room temperature under shaking (800 rpm/min). 4 µL of antibodies working solution was added to each well, covered with a top seal and incubated overnight in 23° C. incubator.
HTRF signal was read (665 nm and 615 nm) on Wallac 2104 EnVision® multilabel reader. Data were analyzed by XL fit software.

Chain of LRRK2 wild type enzyme (Q5S007 whole entry): as above

C[C@@H]1C[C@H](n2c(Cc3noc(N4CCC(O)CC4)n3)nc3cnc4ccc(C#N)cc4c32)CCO1 [Compound 11, 2-{[5-(4-hydroxypiperidin-1-yl)-1,2,4-oxadiazol-3-yl]methyl}-1-[(2R,4R)-2-methyloxan-4-yl]-1H-imidazo[4,5-c]quinoline-8-carbonitrile]
pIC50 (LRRK2 wild type enzyme): 8.65
pIC50 [1]: 6.57

COC(=O)c1cn(Cc2nc3cnc4ccc(C#N)cc4c3n2[C@@H]2CCO[C@H](C)C2)ccc1=O [Compound 18, methyl 1-({8-cyano-1-[(2R,4R)-2-methyloxan-4-yl]-1H-imidazo[4,5-c]quinolin-2-yl}methyl)-4-oxo-1,4-dihydropyridine-3-carboxylate]
pIC50 (LRRK2 wild type enzyme): 8.58
pIC50 [1]: 5.15

C[C@@H]1C[C@H](n2c(Cc3noc(C4(S(C)(=O)=O)CC4)n3)nc3cnc4ccc(Cl)cc4c32)CCO1 [Compound 10, 3-({8-chloro-1-[(2R,4R)-2-methyloxan-4-yl]-1H-imidazo[4,5-c]quinolin-2-yl}methyl)-5-(1-methanesulfonylcyclopropyl)-1,2,4-oxadiazole]
pIC50 (LRRK2 wild type enzyme): 9.52
pIC50 [1]: 7.99

C[C@@H]1C[C@H](n2c(Cc3noc(C4(S(C)(=O)=O)CC4)n3)nc3cnc4ccc(C#N)cc4c32)CCO1 [Compound 13, 2-{[5-(1-methanesulfonylcyclopropyl)-1,2,4-oxadiazol-3-yl]methyl}-1-[(2R,4R)-2-methyloxan-4-yl]-1H-imidazo[4,5-c]quioline-8-carbonitrile]
pIC50 (LRRK2 wild type enzyme): 9.35
pIC50 [1]: 7.63

C[C@@H]1C[C@H](n2c(Cn3ccc(=O)c(C(=O)O)c3)nc3cnc4ccc(C#N)cc4c32)CCO1 [Compound 17, 1-({8-cyano-1-[(2R,4R)-2-methyloxan-4-yl]-1H-imidazo[4,5-c]quinolin-2-yl}methyl)-4-oxo-1,4-dihydropyridine-3-carboxylic acid]
pIC50 (LRRK2 wild type enzyme): 8.54
pIC50 [1]: 5.53

C[C@@H]1C[C@H](n2c(Cc3cnn(C4COC4)c3)nc3cnc4ccc(C#N)cc4c32)CCO1 [Compound 8, 1-[(2R,4R)-2-methyloxan-4-yl]-2-{[1-(oxetan-3-yl)-1H-pyrazol-4-yl]methyl}-1H-imidazo[4,5-c]quinoline-8-carbonitrile]
pIC50 (LRRK2 wild type enzyme): 8.19
pIC50 [1]: 6.21

C[C@@H]1C[C@H](n2c(Cn3ccc(NS(C)(=O)=O)n3)nc3cnc4ccc(C#N)cc4c32)CCO1 [Compound 4, N-(1-{[8-cyano-1-(2-methyloxan-4-yl)-1H-imidazo[4,5-c]quinolin-2-yl]methyl}-1H-pyrazol-3-yl)methanesulfonamide]
pIC50 (LRRK2 wild type enzyme): 9.05
pIC50 [1]: 6.34

C[C@@H]1C[C@H](n2c(Cc3cc(CCS(C)(=O)=O)on3)nc3cnc4ccc(C#N)cc4c32)CCO1 [Compound 20, 2-{[5-(2-methanesulfonylethyl)-1,2-oxazol-3-yl]methyl}-1-[(2R,4R)-2-methyloxan-4-yl]-1H-imidazo[4,5-c]quinoline-8-carbonitrile]
pIC50 (LRRK2 wild type enzyme): 9.22

C[C@@H]1C[C@H](n2c(Cc3cn(C4CN(S(C)(=O)=O)C4)nn3)nc3cnc4ccc(C#N)cc4c32)CCO1 [Compound 5, 2-{[1-(1-methanesulfonylazetidin-3-yl)-1H-1,2,3-triazol-4-yl]methyl}-1-[(2R,4R)-2-methyloxan-4-yl]-1H-imidazo[4,5-c]quinoline-8-carbonitrile]
pIC50 (LRRK2 wild type enzyme): 9.20
pIC50 [1]: 6.49

C[C@@H]1C[C@H](n2c(Cn3cccc(C(=O)O)c3=O)nc3cnc4ccc(C#N)cc4c32)CCO1 [Compound 2, 1-({8-cyano-1-[(2R,4R)-2-methyloxan-4-yl]-1H-imidazo[4,5-c]quinolin-2-yl}methyl)-2-oxo-1,2-dihydropyridine-3-carboxylic acid]
pIC50 (LRRK2 wild type enzyme): 6.97

C[C@@H]1C[C@H](n2c(Cc3noc(=O)[nH]3)nc3cnc4ccc(C#N)cc4c32)CCO1 [Compound 14, 1-[(2R,4R)-2-methyloxan-4-yl]-2-[(5-oxo-4,5-dihydro-1,2,4-oxadiazol-3-yl)methyl]-1H-imidazo[4,5-c]quinoline-8-carbonitrile]
pIC50 (LRRK2 wild type enzyme): 8.11
pIC50 [1]: < 5.00

C[C@@H]1C[C@H](n2c(Cc3noc(N4CC(O)C4)n3)nc3cnc4ccc(C#N)cc4c32)CCO1 [Compound 1, 2-{[5-(3-hydroxyazetidin-1-yl)-1,2,4-oxadiazol-3-yl]methyl}-1-[(2R,4R)-2-methyloxan-4-yl]-1H-imidazo[4,5-c]quinoline-8-carbonitrile]
pIC50 (LRRK2 wild type enzyme): 9.01
pIC50 [1]: 6.18

C[C@@H]1CC(n2c(Cn3nccc3NS(C)(=O)=O)nc3cnc4ccc(C#N)cc4c32)CCO1 (stereo in doubt) [Compound 16, N-(1-{[8-cyano-1-(2-methyloxan-4-yl)-1H-imidazo[4,5-c]quinolin-2-yl]methyl}-1H-pyrazol-5-yl)methanesulfonamide]
pIC50 (LRRK2 wild type enzyme): 6.17

C[C@@H]1C[C@H](n2c(Cc3cn([C@H]4C[C@@H](S(C)(=O)=O)C4)nn3)nc3cnc4ccc(C#N)cc4c32)CCO1 [Compound 21]
pIC50 (LRRK2 wild type enzyme): 8.85
pIC50 [1]: 5.75

C[C@@H]1C[C@H](n2c(Cc3noc(N4CC(O)C4)n3)nc3cnc4ccc(Cl)cc4c32)CCO1 [Compound 3, 1-[3-({8-chloro-1-[(2R,4R)-2-methyloxan-4-yl]-1H-imidazo[4,5-c]quinolin-2-yl}methyl)-1,2,4-oxadiazol-5-yl]azetidin-3-ol]
pIC50 (LRRK2 wild type enzyme): 9.10
pIC50 [1]: 7.21

C[C@@H]1C[C@H](n2c(Cc3ccc(S(C)(=O)=O)cn3)nc3cnc4ccc(C#N)cc4c32)CCO1 [Compound 22, 2-[(5-methanesulfonylpyridin-2-yl)methyl]-1-[(2R,4R)-2-methyloxan-4-yl]-1H-imidazo[4,5-c]quinoline-8-carbonitrile]
pIC50 (LRRK2 wild type enzyme): 9.24
